Measurements: patent US9512113B2, “N-(tetrazol-5-yl)- and N-(triazol-5-yl)arylcarboxylic thioamides and use thereof as herbicides” (BAYER CROPSCIENCE AG, priority 2012, dated 2016)

Assays:
Assay type in all cases: in vivo
Avena fatua [1] = experiment: Pre-emergence herbicidal action against harmful plants; settings: Table C, 320 g/ha
From the text: (§1) Seeds of monocotyledonous and dicotyledonous weed plants and crop plants are placed in wood-fiber pots in sandy loam and covered with soil. The compounds according to the invention, formulated in the form of wettable powders (WP) or as emulsion concentrates (EC), are then applied as aqueous suspension or emulsion at a water application rate of 600 to 800 I/ha (converted) with the addition of 0.2% of wetting agent to the surface of the covering soil. After the treatment, the pots are placed in a greenhouse and kept under good growth conditions for the test plants. The damage to the test plants is assessed visually after a test period of 3 weeks by comparison with untreated controls (herbicidal activity in percent (%): 100% action=the plants have died, 0% action=like control plants). Here, for example, the compounds Nos 1-8, 1-26 and 4-7, at an application rate of 80 g/ha, show an activity of at least 80% against Alopecurus myosuroides, Avena fatua, Cyperus serotinus, Echinochloa crus galli, Lolium multiflorum, Setaria viridis, Abutilon theophrasti, Amaranthus retroflexus, Matricaria inodora, Pharbitis purpureum, Stellaria media, Viola tricolor and Veronica persica.
(§2) These comparative experiments were carried out under the conditions mentioned above by the pre-emergence method and the post-emergence method. In the tables below, the top line in each case states the compound according to the invention, and the bottom line states the compound from WO 2012/028579 A1.

Polygonum convolvulus [2] = experiment: as above
From the text: as §1, §2

Zea mays (corn) [3] = experiment: Pre-emergence action, damage to crop plants; settings: Table C, 320 g/ha
From the text: as §1, §2

Pharbitis purpureum [4] = experiment: Pre-emergence herbicidal action against harmful plants
From the text: as §1, §2

[5] = tested on: Triticum aestivum (wheat); experiment: Pre-emergence action, damage to crop plants; settings: Table D, 320 g/ha
From the text: as §1, §2

Abutilon theophrasti = experiment: Pre-emergence herbicidal action against harmful plants
From the text: as §1, §2

Amaranthus retroflexus [6] = experiment: as above; settings: Table E, 320 g/ha
From the text: as §1, §2

[7] = tested on: Brassica napus (oilseed rape); experiment: Pre-emergence action, damage to crop plants
From the text: as §1, §2

Pharbitis purpureum [8] = experiment: Post-emergence herbicidal action against harmful plants; settings: Table G, 5 g/ha
Procedure: (§3) Seeds of monocotyledonous and dicotyledonous weed and crop plants are placed in sandy loam in wood-fiber pots, covered with soil and cultivated in a greenhouse under good growth conditions. 2 to 3 weeks after sowing, the test plants are treated at the one-leaf stage. The compounds according to the invention, formulated in the form of wettable powders (WP) or as emulsion concentrates (EC), are then sprayed as aqueous suspension or emulsion at a water application rate of 600 to 800 I/ha (converted) with the addition of 0.2% of wetting agent onto the green parts of the plants. After the test plants have been left to stand in the greenhouse under optimal growth conditions for about 3 weeks, the action of the preparations is assessed visually in comparison to untreated controls (herbicidal action in percent (%): 100% action=the plants have died, 0% action=like control plants). Here, for example, the compounds Nos 1-8 and 1-83, at an application rate of 80 g/ha, show an activity of at least 80% against Alopecurus myosuroides, Avena fatua, Cyperus serotinus, Echinochloa crus galli, Lolium multiflorum, Setaria viridis, Abutilon theophrasti, Amaranthus retroflexus, Matricaria inodora, Pharbitis purpureum, Polygonum convolvulus, Stellaria media, Viola tricolor and Veronica persica.
as §2

Polygonum convolvulus [9] = experiment: as above
Procedure: as §3, §2

Oryza sativa (rice) [10] = experiment: Post-emergence action, damage to crop plants; settings: Table G, 5 g/ha
Procedure: as §3, §2

[11] = tested on: Triticum aestivum (wheat); experiment: Post-emergence action, damage to crop plants
Procedure: as §3, §2

Cyperus serotinus = experiment: Pre-emergence herbicidal action against harmful plants; settings: Table B, 20 g/ha
From the text: as §1, §2

Echinochloa crus galli [12] = experiment: as above; settings: 20 g/ha
From the text: as §1, §2

Oryza sativa (rice) [13] = experiment: Pre-emergence action, damage to crop plants; settings: 20 g/ha
From the text: as §1, §2

Amaranthus retroflexus [14] = experiment: Post-emergence herbicidal action against harmful plants; settings: Table H, 5 g/ha
Procedure: as §3, §2

Echinochloa crus galli [15] = experiment: as above; settings: Table H, 5 g/ha
Procedure: as §3, §2

Setaria viridis = experiment: as above; settings: Table H, 5 g/ha
Procedure: as §3, §2

Alopecurus myosuroides = experiment: as above; settings: Table I, 80 g/ha
Procedure: as §3, §2

Lolium multiflorum = experiment: as above; settings: 80 g/ha
Procedure: as §3, §2

Zea mays (corn) [16] = experiment: Post-emergence action, damage to crop plants; settings: 80 g/ha
Procedure: as §3, §2

Avena fatua [17] = experiment: Post-emergence herbicidal action against harmful plants; settings: Table K, 80 g/ha
Procedure: as §3, §2

For `Cn1nnnc1NC(=S)c1ccc(S(C)(=O)=O)c(COCC(F)(F)F)c1Cl`, which “Herbicidal efficacy against AVEFA” value (Avena fatua [1]) is on record?
Its value is 90%.

What about the “Herbicidal efficacy against POLCO” value (Polygonum convolvulus [2]; Table C, 320 g/ha) of the same compound?
Its value is 90%.

What about the “Damage to crop plants ZEAMX” value (Zea mays (corn) [3]) of the same compound?
Its value is 0%.

What does the source list for `Cn1nnnc1NC(=O)c1ccc(S(C)(=O)=O)c(COCC(F)(F)F)c1Cl`?
Herbicidal efficacy against AVEFA (Avena fatua [1]): 70%; Herbicidal efficacy against POLCO (Polygonum convolvulus [2]; Table C, 320 g/ha): 50%; Damage to crop plants ZEAMX (Zea mays (corn) [3]): 20%

What does the source list for `Cc1nc(C(F)(F)F)ccc1C(=S)Nc1nnnn1C`?
Herbicidal efficacy against PHBPU (Pharbitis purpureum [4]; Table D, 320 g/ha): 80%; Herbicidal efficacy against POLCO (Polygonum convolvulus [2]; Table D, 320 g/ha): 80%; Damage to crop plants TRZAS [5]: 0%

How did the “Herbicidal efficacy against PHBPU” value (Pharbitis purpureum [4]; Table D, 320 g/ha) turn out when `Cc1nc(C(F)(F)F)ccc1C(=O)Nc1nnnn1C` was run?
The value was 60%.

And the “Herbicidal efficacy against POLCO” value (Polygonum convolvulus [2]; Table D, 320 g/ha)?
Its value is 60%.

And the “Damage to crop plants TRZAS” value [5]?
The value was 20%.

`Cc1c(C(=S)Nc2ncnn2C)ccc(S(C)(=O)=O)c1S(C)(=O)=O` was tested. Which “Herbicidal efficacy against ABUTH” value (Abutilon theophrasti; Table E, 320 g/ha) did it give?
Its value is 80%.

What about the “Herbicidal efficacy against AMARE” value (Amaranthus retroflexus [6]) of the same compound?
The value was 90%.

And the “Damage to crop plants BRSNW” value ([7]; Table E, 320 g/ha)?
Its value is 0%.

With `Cc1c(C(=O)Nc2ncnn2C)ccc(S(C)(=O)=O)c1S(C)(=O)=O` as the compound, how does the “Herbicidal efficacy against ABUTH” value (Abutilon theophrasti; Table E, 320 g/ha) read?
The value was 0%.

And the “Herbicidal efficacy against AMARE” value (Amaranthus retroflexus [6])?
Its value is 40%.

What about the “Damage to crop plants BRSNW” value ([7]; Table E, 320 g/ha) of the same compound?
The value was 20%.

How did the “Herbicidal efficacy against PHBPU” value (Pharbitis purpureum [8]) turn out when `CCOc1c(S(C)(=O)=O)ccc(C(=S)Nc2nnnn2C)c1Cl` was run?
Its value is 80%.

And the “Herbicidal efficacy against POLCO” value (Polygonum convolvulus [9]; Table G, 5 g/ha)?
The value was 60%.

What about the “Damage to crop plants ORYSA” value (Oryza sativa (rice) [10]) of the same compound?
The value was 10%.

And the “Damage to crop plants TRZAS” value ([11]; Table G, 5 g/ha)?
Its value is 0%.

What does the source list for `CCOc1c(S(C)(=O)=O)ccc(C(=O)Nc2nnnn2C)c1Cl`?
Herbicidal efficacy against PHBPU (Pharbitis purpureum [8]): 20%; Herbicidal efficacy against POLCO (Polygonum convolvulus [9]; Table G, 5 g/ha): 40%; Damage to crop plants ORYSA (Oryza sativa (rice) [10]): 40%; Damage to crop plants TRZAS ([11]; Table G, 5 g/ha): 30%

What does the source list for `Cn1nnnc1NC(=S)c1ccc(C(F)(F)F)cc1S(C)(=O)=O`?
Herbicidal efficacy against POLCO (Polygonum convolvulus [9]; Table J, 80 g/ha): 90%; Damage to crop plants TRZAS ([11]; Table J, 80 g/ha): 20%

`Cn1nnnc1NC(=O)c1ccc(C(F)(F)F)cc1S(C)(=O)=O` was tested. Which “Herbicidal efficacy against POLCO” value (Polygonum convolvulus [9]; Table J, 80 g/ha) did it give?
The value was 70%.

And the “Damage to crop plants TRZAS” value ([11]; Table J, 80 g/ha)?
The value was 60%.

Which results are given for `Cc1c(C(=S)Nc2nnnn2C)ccc(S(C)(=O)=O)c1Cl` [drawing 8]?
Herbicidal efficacy against ABUTH (Abutilon theophrasti; Table A, 20 g/ha): 90%; Herbicidal efficacy against PHBPU (Pharbitis purpureum [4]; Table A, 20 g/ha): 20%; Damage to crop plants BRSNW ([7]; Table A, 20 g/ha): 0%

`Cc1c(C(=O)Nc2nnnn2C)ccc(S(C)(=O)=O)c1Cl` [drawing 9] was tested. Which “Herbicidal efficacy against ABUTH” value (Abutilon theophrasti; Table A, 20 g/ha) did it give?
The value was 70%.

What about the “Herbicidal efficacy against PHBPU” value (Pharbitis purpureum [4]; Table A, 20 g/ha) of the same compound?
The value was 0%.

What about the “Damage to crop plants BRSNW” value ([7]; Table A, 20 g/ha) of the same compound?
The value was 20%.

What does the source list for `CCCn1nnnc1NC(=S)c1ccc(C(F)(F)F)c(S(C)(=O)=O)c1C` [drawing 10]?
Herbicidal efficacy against CYPES (Cyperus serotinus): 100%; Herbicidal efficacy against ECHCG (Echinochloa crus galli [12]; Table B): 20%; Damage to crop plants ORYSA (Oryza sativa (rice) [13]; Table B): 0%

For `CCCn1nnnc1NC(=O)c1ccc(C(F)(F)F)c(S(C)(=O)=O)c1C` [drawing 11], which “Herbicidal efficacy against CYPES” value (Cyperus serotinus) is on record?
The value was 0%.

What about the “Herbicidal efficacy against ECHCG” value (Echinochloa crus galli [12]; Table B) of the same compound?
The value was 0%.

And the “Damage to crop plants ORYSA” value (Oryza sativa (rice) [13]; Table B)?
Its value is 50%.

For `Cc1c(C(=S)Nc2nnnn2C)ccc(C(F)(F)F)c1S(C)(=O)=O` [drawing 18], which “Herbicidal efficacy against ECHCG” value (Echinochloa crus galli [12]; Table F) is on record?
The value was 100%.

What about the “Herbicidal efficacy against POLCO” value (Polygonum convolvulus [2]; Table F, 20 g/ha) of the same compound?
The value was 60%.

What about the “Damage to crop plants BRSNW” value ([7]; Table F, 20 g/ha) of the same compound?
Its value is 0%.

And the “Damage to crop plants ORYSA” value (Oryza sativa (rice) [13]; Table F)?
Its value is 20%.

For `Cc1c(C(=O)Nc2nnnn2C)ccc(C(F)(F)F)c1S(C)(=O)=O` [drawing 19], which “Herbicidal efficacy against ECHCG” value (Echinochloa crus galli [12]; Table F) is on record?
Its value is 20%.

What about the “Herbicidal efficacy against POLCO” value (Polygonum convolvulus [2]; Table F, 20 g/ha) of the same compound?
The value was 0%.

What about the “Damage to crop plants BRSNW” value ([7]; Table F, 20 g/ha) of the same compound?
Its value is 30%.

And the “Damage to crop plants ORYSA” value (Oryza sativa (rice) [13]; Table F)?
Its value is 50%.

What does the source list for `Cc1c(C(=S)Nc2nnnn2C)ccc(S(C)(=O)=O)c1Cl` [drawing 22]?
Herbicidal efficacy against AMARE (Amaranthus retroflexus [14]): 40%; Herbicidal efficacy against ECHCG (Echinochloa crus galli [15]): 70%; Herbicidal efficacy against SETVI (Setaria viridis): 40%

For `Cc1c(C(=O)Nc2nnnn2C)ccc(S(C)(=O)=O)c1Cl` [drawing 23], which “Herbicidal efficacy against AMARE” value (Amaranthus retroflexus [14]) is on record?
Its value is 20%.

And the “Herbicidal efficacy against ECHCG” value (Echinochloa crus galli [15])?
The value was 10%.

And the “Herbicidal efficacy against SETVI” value (Setaria viridis)?
The value was 0%.

What does the source list for `CCCn1nnnc1NC(=S)c1ccc(C(F)(F)F)c(S(C)(=O)=O)c1C` [drawing 24]?
Herbicidal efficacy against ALOMY (Alopecurus myosuroides): 80%; Herbicidal efficacy against LOLMU (Lolium multiflorum; Table I): 20%; Damage to crop plants ZEAMX (Zea mays (corn) [16]; Table I): 0%

For `CCCn1nnnc1NC(=O)c1ccc(C(F)(F)F)c(S(C)(=O)=O)c1C` [drawing 25], which “Herbicidal efficacy against ALOMY” value (Alopecurus myosuroides) is on record?
The value was 30%.

What about the “Herbicidal efficacy against LOLMU” value (Lolium multiflorum; Table I) of the same compound?
The value was 0%.

And the “Damage to crop plants ZEAMX” value (Zea mays (corn) [16]; Table I)?
The value was 20%.

What does the source list for `Cc1c(C(=S)Nc2nnnn2C)ccc(C(F)(F)F)c1S(C)(=O)=O` [drawing 28]?
Herbicidal efficacy against AVEFA (Avena fatua [17]): 90%; Herbicidal efficacy against LOLMU (Lolium multiflorum; Table K): 90%; Damage to crop plants ZEAMX (Zea mays (corn) [16]; Table K): 50%

Which results are given for `Cc1c(C(=O)Nc2nnnn2C)ccc(C(F)(F)F)c1S(C)(=O)=O` [drawing 29]?
Herbicidal efficacy against AVEFA (Avena fatua [17]): 70%; Herbicidal efficacy against LOLMU (Lolium multiflorum; Table K): 70%; Damage to crop plants ZEAMX (Zea mays (corn) [16]; Table K): 70%
